Laboratory results published in ChEMBL document CHEMBL1201862, “PubChem BioAssay data set” (2004).
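Cells were grown in 96-well plates and exposed to each compound for 48 hours at five concentrations; endpoints were interpolated linearly between bracketing concentrations, or set to the highest concentration if not reached. GI50 = concentration required for 50% inhibition of growth.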 Calls of active or inactive are those of the source. Cut-off read from the data, not from the text of the source: active = GI50 up to about 1.1 µM and inactive = higher.

Assays:
Assay in all cases: growth of human tumour cells (NCI), 48 h
SF-539 = system: SF-539
HL-60 = system: HL-60
SNB-75 = system: SNB-75
SK-MEL-28 = system: SK-MEL-28
M14 = system: M14
MOLT-4 = system: MOLT-4
SK-MEL-2 = system: SK-MEL-2
SF-295 = system: SF-295
NCI-H460 = system: NCI-H460
LOX IMVI = system: LOX IMVI
UACC-62 = system: UACC-62
HCC 2998 = system: HCC 2998
RPMI-8226 = system: RPMI-8226
SNB-19 = system: SNB-19
A498 = system: A498

Measured: GI50

N#CC(C#N)=C1NN=C(Cl)c2ccccc21
inactive: SF-539 85.5 µM | HL-60 43.2 µM | SNB-75 33.9 µM | SK-MEL-28 61.8 µM | M14 > 100 µM | MOLT-4 > 100 µM | SK-MEL-2 > 100 µM | SF-295 > 100 µM | NCI-H460 > 100 µM | LOX IMVI > 100 µM | UACC-62 70.5 µM | HCC 2998 > 100 µM | RPMI-8226 57.3 µM

Cc1cc2c(=O)cc(-c3ccc(C(=O)O)cc3)oc2c(C(N)=O)c1C
inactive: SF-539 > 100 µM | SNB-75 28.9 µM | SK-MEL-28 > 100 µM | M14 > 100 µM | SNB-19 > 100 µM | MOLT-4 > 100 µM | SK-MEL-2 > 100 µM | SF-295 > 100 µM | NCI-H460 > 100 µM | LOX IMVI > 100 µM | UACC-62 > 100 µM | HCC 2998 > 100 µM | RPMI-8226 > 100 µM | A498 > 100 µM

COC(=O)C(CC=O)C(=O)C(=O)Nc1cccc(C(F)(F)F)c1 (stereo not given)
inactive: SF-539 > 100 µM | HL-60 > 100 µM | SK-MEL-28 > 100 µM | M14 > 100 µM | SNB-19 > 100 µM | MOLT-4 > 100 µM | SK-MEL-2 > 100 µM | SF-295 > 100 µM | NCI-H460 > 100 µM | LOX IMVI > 100 µM | UACC-62 > 100 µM | HCC 2998 > 100 µM | RPMI-8226 > 100 µM

COC1=CC(C)C2C[C@H]3O[C@H](O)C[C@H]4C(C)C(=O)C(O)C([C@@]2(C)C1=O)[C@@]34C (stereo not given in full)
inactive: SF-539 > 100 µM | SNB-75 > 100 µM | SK-MEL-28 > 100 µM | M14 > 100 µM | MOLT-4 > 100 µM | SF-295 > 100 µM | NCI-H460 > 100 µM | LOX IMVI > 100 µM | UACC-62 > 100 µM | HCC 2998 > 100 µM | RPMI-8226 > 100 µM | A498 > 100 µM

OCC(O)C(O)C(O)c1nnn[nH]1 (stereo not given)
inactive: SF-539 > 100 µM | HL-60 > 100 µM | SNB-75 > 100 µM | M14 > 100 µM | MOLT-4 > 100 µM | SK-MEL-2 > 100 µM | SF-295 > 100 µM | NCI-H460 > 100 µM | LOX IMVI > 100 µM | UACC-62 > 100 µM | RPMI-8226 > 100 µM

COc1cc(/C=C(\C#N)C(=O)c2ccccc2)cc(OC)c1OC
inactive: SF-539 > 100 µM | HL-60 > 100 µM | SNB-75 38.1 µM | SK-MEL-28 > 100 µM | M14 > 100 µM | SNB-19 > 100 µM | MOLT-4 > 100 µM | SK-MEL-2 > 100 µM | SF-295 > 100 µM | NCI-H460 > 100 µM | LOX IMVI > 100 µM | UACC-62 > 100 µM | HCC 2998 > 100 µM | RPMI-8226 > 100 µM

CN1OC2OC(=O)OC2[C@H]1[C@H]1O[C@H](c2ccccc2)OC1(C)c1cc(OC(=O)c2ccccc2)ccc1OC(=O)c1ccccc1 (stereo not given in full)
inactive: SF-539 > 50 µM | HL-60 > 50 µM | SNB-75 > 50 µM | SK-MEL-28 > 50 µM | M14 > 50 µM | SNB-19 > 50 µM | MOLT-4 > 50 µM | SK-MEL-2 > 50 µM | NCI-H460 > 50 µM | LOX IMVI > 50 µM | RPMI-8226 > 50 µM

CN(C)c1ccc(/C=C/C(=O)c2ccccc2)cc1Br
inactive: SNB-75 16.6 µM | SK-MEL-28 13.7 µM | M14 13.2 µM | SNB-19 18.8 µM | MOLT-4 23 µM | SK-MEL-2 18.4 µM | SF-295 20 µM | NCI-H460 35.7 µM | UACC-62 16.5 µM | HCC 2998 19.2 µM | RPMI-8226 13.2 µM | A498 > 100 µM
